According to ChEMBL document CHEMBL1151840, “Synthetic oligoribonucleotides containing arabinonucleotides act as agonists of TLR7 and 8” (Bioorg Med Chem Lett, 2009):
The source made the active and inactive calls. The rule behind the calls is not given here.

Experiments:
[1] = organism: Homo sapiens; assay: Stimulation of immune response in human pDC assessed as induction of IFNalpha production at 150 ug/ml after 24 hrs; assay type: functional
[2] = organism: Homo sapiens; assay: Stimulation of immune response in human pDC assessed as induction of TNFalpha production at 150 ug/ml after 24 hrs; assay type: functional
[3] = system: Mus musculus; assay: Stimulation of immune response in C57BL/6 mouse assessed as induction of serum IL12 production at 50 mg/kg, sc after 2 hrs by luminex multiplex assay; assay type: functional, organism-based; set-up: dose 50 mg/kg
[4] = molecular target: T1, Toll-like receptor 8 (Homo sapiens) (UniProt Q9NR97); assay: Agonist activity at human TLR8 expressed in HEK293XL cells assessed as NF-kappaB activation after 18 hrs; assay type: functional, cell-based
T1 sequence (whole entry): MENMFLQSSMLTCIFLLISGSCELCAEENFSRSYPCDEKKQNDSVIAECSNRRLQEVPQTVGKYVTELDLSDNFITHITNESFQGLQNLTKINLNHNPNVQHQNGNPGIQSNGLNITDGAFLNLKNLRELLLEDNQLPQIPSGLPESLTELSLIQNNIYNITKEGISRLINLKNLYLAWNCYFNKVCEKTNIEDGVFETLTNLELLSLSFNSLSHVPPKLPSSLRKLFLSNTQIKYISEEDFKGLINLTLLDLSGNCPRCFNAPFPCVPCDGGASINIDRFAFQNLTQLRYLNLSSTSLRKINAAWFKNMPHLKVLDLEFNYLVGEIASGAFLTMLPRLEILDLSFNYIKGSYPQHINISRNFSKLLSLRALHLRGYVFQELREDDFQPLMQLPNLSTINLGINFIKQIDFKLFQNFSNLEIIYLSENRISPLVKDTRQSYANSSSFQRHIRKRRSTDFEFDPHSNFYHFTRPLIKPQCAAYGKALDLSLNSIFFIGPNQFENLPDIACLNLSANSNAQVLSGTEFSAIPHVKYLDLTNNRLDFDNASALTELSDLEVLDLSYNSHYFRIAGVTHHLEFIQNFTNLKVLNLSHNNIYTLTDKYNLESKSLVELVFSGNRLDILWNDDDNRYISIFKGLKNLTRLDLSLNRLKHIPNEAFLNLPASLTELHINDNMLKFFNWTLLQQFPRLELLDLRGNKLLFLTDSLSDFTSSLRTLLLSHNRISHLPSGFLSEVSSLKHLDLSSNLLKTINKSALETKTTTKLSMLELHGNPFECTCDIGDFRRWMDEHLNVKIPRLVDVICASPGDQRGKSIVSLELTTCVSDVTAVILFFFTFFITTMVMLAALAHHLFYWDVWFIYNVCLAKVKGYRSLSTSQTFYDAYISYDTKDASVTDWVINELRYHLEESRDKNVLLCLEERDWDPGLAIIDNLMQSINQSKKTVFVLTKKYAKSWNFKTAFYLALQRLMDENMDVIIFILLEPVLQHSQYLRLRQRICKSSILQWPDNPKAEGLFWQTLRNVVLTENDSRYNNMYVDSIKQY

[5] = system: PBMC; assay: Stimulation of immune response in human PBMC assessed as induction of MIP1alpha production at 150 ug/ml after 24 hrs; assay type: functional, cell-based
[6] = system: PBMC; assay: Stimulation of immune response in human PBMC assessed as induction of TNFalpha production at 150 ug/ml after 24 hrs; assay type: functional, cell-based
[7] = organism: Homo sapiens; assay: Stimulation of immune response in human pDC assessed as induction of MIP1alpha production at 150 ug/ml after 24 hrs; assay type: functional
[8] = system: PBMC; assay: Stimulation of immune response in human PBMC assessed as induction of IL12 production at 150 ug/ml after 24 hrs; assay type: functional, cell-based
[9] = Stability in human serum assessed as full-length compound remaining after 10 mins by anion-exchange HPLC; assay type: ADME, cell-free; conditions: read-out: Stability
[10] = system: PBMC; assay: Stimulation of immune response in human PBMC assessed as induction of IL2R level at 150 ug/ml after 24 hrs; assay type: functional, cell-based
[11] = system: PBMC; assay: Stimulation of immune response in human PBMC assessed as induction of IL8 production at 150 ug/ml after 24 hrs; assay type: functional, cell-based
[12] = organism: Homo sapiens; assay: Stimulation of immune response in human pDC assessed as induction of IL12 production at 150 ug/ml after 24 hrs; assay type: functional
[13] = organism: Homo sapiens; assay: Stimulation of immune response in human pDC assessed as induction of MIP1beta production at 150 ug/ml after 24 hrs; assay type: functional
[14] = system: PBMC; assay: Stimulation of immune response in human PBMC assessed as induction of IFN-gamma production at 150 ug/ml after 24 hrs; assay type: functional, cell-based
[15] = system: PBMC; assay: Stimulation of immune response in human PBMC assessed as induction of IFNalpha production at 150 ug/ml after 24 hrs; assay type: functional, cell-based
[16] = system: PBMC; assay: Stimulation of immune response in human PBMC assessed as induction of RANTES production at 150 ug/ml after 24 hrs; assay type: functional, cell-based
[17] = system: PBMC; assay: Stimulation of immune response in human PBMC assessed as induction of IL10 production at 150 ug/ml after 24 hrs; assay type: functional, cell-based
[18] = system: PBMC; assay: Stimulation of immune response in human PBMC assessed as induction of MCP1 production at 150 ug/ml after 24 hrs; assay type: functional, cell-based
[19] = organism: Homo sapiens; assay: Stimulation of immune response in human pDC assessed as induction of IFN-gamma production at 150 ug/ml after 24 hrs; assay type: functional
[20] = system: PBMC; assay: Stimulation of immune response in human PBMC assessed as induction of IL1-beta production at 150 ug/ml after 24 hrs; assay type: functional, cell-based
[21] = system: PBMC; assay: Stimulation of immune response in human PBMC assessed as induction of MIP1beta production at 150 ug/ml after 24 hrs; assay type: functional, cell-based
[22] = molecular target: T2, Toll-like receptor 7 (Homo sapiens) (UniProt Q9NYK1); assay: Agonist activity at human TLR7 expressed in HEK293XL cells assessed as NF-kappaB activation after 18 hrs; assay type: functional, cell-based
T2 sequence (whole entry): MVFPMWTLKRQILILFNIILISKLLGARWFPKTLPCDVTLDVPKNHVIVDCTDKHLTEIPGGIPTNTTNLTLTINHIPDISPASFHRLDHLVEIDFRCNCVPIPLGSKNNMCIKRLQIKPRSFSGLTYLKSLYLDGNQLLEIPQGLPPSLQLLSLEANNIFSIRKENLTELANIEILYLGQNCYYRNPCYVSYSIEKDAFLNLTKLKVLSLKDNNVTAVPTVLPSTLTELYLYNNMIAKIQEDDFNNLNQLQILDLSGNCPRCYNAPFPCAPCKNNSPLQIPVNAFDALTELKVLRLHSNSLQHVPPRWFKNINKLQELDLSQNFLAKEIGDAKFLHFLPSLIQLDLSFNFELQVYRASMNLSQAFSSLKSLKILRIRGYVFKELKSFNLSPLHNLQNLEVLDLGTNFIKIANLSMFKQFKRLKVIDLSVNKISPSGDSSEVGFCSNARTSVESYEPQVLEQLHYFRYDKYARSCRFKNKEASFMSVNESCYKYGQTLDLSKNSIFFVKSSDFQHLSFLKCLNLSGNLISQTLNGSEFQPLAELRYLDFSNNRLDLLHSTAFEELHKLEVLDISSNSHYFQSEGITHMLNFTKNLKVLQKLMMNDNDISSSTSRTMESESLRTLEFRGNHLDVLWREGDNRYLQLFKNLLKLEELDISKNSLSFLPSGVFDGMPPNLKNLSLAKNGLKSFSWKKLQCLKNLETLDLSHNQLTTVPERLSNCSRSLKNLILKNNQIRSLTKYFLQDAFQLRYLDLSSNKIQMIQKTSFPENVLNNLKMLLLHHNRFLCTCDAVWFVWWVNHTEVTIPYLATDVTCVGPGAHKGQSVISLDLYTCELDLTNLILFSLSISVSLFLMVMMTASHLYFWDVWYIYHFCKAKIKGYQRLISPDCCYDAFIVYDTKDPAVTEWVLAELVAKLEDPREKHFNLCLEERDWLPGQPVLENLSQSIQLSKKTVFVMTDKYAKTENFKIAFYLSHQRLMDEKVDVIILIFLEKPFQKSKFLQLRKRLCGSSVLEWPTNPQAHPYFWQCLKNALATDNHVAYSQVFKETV

Activity [4] | remaining at 10 min [9] | Structure (SMILES) | Activity [1] | Activity [2] | Activity [3] | Activity [5] | Activity [6] | Activity [7] | Activity [8] | Activity [10] | Activity [11] | Activity [12] | Activity [13] | Activity [14] | Activity [15] | Activity [16] | Activity [17] | Activity [18] | Activity [19] | Activity [20] | further results
inactive | 90% | Nc1ncnc2c1ncn2[C@@H]1O[C@H](CO)[C@@H](OP(=O)(S)OC[C@H]2O[C@@H](n3cnc4c(N)ncnc43)[C@H](O)[C@@H]2OP(=O)(S)OC[C@H]2O[C@@H](n3cnc4c(N)ncnc43)[C@H](O)[C@@H]2OP(=O)(S)OC[C@H]2O[C@@H](n3cnc4c(N)ncnc43)[C@H](O)[C@@H]2OP(=O)(S)OC[C@H]2O[C@@H](n3cnc4c(N)ncnc43)[C@H](O)[C@@H]2OP(=O)(S)OC[C@H]2O[C@@H](n3cnc4c(N)ncnc43)[C@H](O)[C@@H]2OP(=O)(S)OC[C@H]2O[C@@H](n3cnc4c(N)ncnc43)[C@H](O)[C@@H]2OP(=O)(S)OC[C@H]2O[C@@H](n3cnc4c(N)ncnc43)[C@H](O)[C@@H]2OP(=O)(S)OC[C@H]2O[C@@H](n3cnc4c(N)ncnc43)[C@H](O)[C@@H]2OP(=O)(S)OC[C@H]2O[C@@H](n3cnc4c(N)ncnc43)[C@H](O)[C@@H]2OP(=O)(S)OC[C@H]2O[C@@H](n3cnc4c(N)ncnc43)[C@H](O)[C@@H]2OP(=O)(S)OCC(O)COP(=O)(S)O[C@H]2[C@@H](O)[C@H](n3cnc4c(N)ncnc43)O[C@@H]2COP(=O)(S)O[C@H]2[C@@H](O)[C@H](n3cnc4c(N)ncnc43)O[C@@H]2COP(=O)(S)O[C@H]2[C@@H](O)[C@H](n3cnc4c(N)ncnc43)O[C@@H]2COP(=O)(S)O[C@H]2[C@@H](O)[C@H](n3cnc4c(N)ncnc43)O[C@@H]2COP(=O)(S)O[C@H]2[C@@H](O)[C@H](n3cnc4c(N)ncnc43)O[C@@H]2COP(=O)(S)O[C@H]2[C@@H](O)[C@H](n3cnc4c(N)ncnc43)O[C@@H]2COP(=O)(S)O[C@H]2[C@@H](O)[C@H](n3cnc4c(N)ncnc43)O[C@@H]2COP(=O)(S)O[C@H]2[C@@H](O)[C@H](n3cnc4c(N)ncnc43)O[C@@H]2COP(=O)(S)O[C@H]2[C@@H](O)[C@H](n3cnc4c(N)ncnc43)O[C@@H]2COP(=O)(S)O[C@H]2[C@@H](O)[C@H](n3cnc4c(N)ncnc43)O[C@@H]2COP(=O)(S)O[C@H]2[C@@H](O)[C@H](n3cnc4c(N)ncnc43)O[C@@H]2CO)[C@H]1O (some centres undefined) | inactive | inactive | inactive | inactive | inactive | inactive | inactive | inactive | inactive | inactive | inactive | inactive | inactive | inactive | inactive | inactive | inactive | inactive | Activity [21]: inactive; Activity [22]: inactive
Dose-dependent effect | 75% | Nc1ccn([C@@H]2O[C@H](COP(O)(=S)O[C@H]3[C@@H](O)[C@H](n4cnc5c(=O)[nH]c(N)nc54)O[C@@H]3COP(O)(=S)O[C@H]3[C@@H](O)[C@H](n4ccc(=O)[nH]c4=O)O[C@@H]3CO)[C@@H](OP(O)(=S)OC[C@H]3O[C@@H](n4ccc(=O)[nH]c4=O)[C@H](O)[C@@H]3OP(O)(=S)OC[C@H]3O[C@@H](n4cnc5c(=O)[nH]c(N)nc54)[C@H](O)[C@@H]3OP(O)(=S)OC[C@H]3O[C@@H](n4ccc(N)nc4=O)[C@H](O)[C@@H]3OP(O)(=S)OC[C@H]3O[C@@H](n4ccc(=O)[nH]c4=O)[C@H](O)[C@@H]3OP(O)(=S)OC[C@H]3O[C@@H](n4ccc(=O)[nH]c4=O)[C@H](O)[C@@H]3OP(O)(=S)OC[C@H]3O[C@@H](n4cnc5c(=O)[nH]c(N)nc54)[C@H](O)[C@@H]3OP(O)(=S)OC[C@H]3O[C@@H](n4ccc(=O)[nH]c4=O)[C@H](O)[C@@H]3OP(O)(=S)OC[C@H]3O[C@@H](n4cnc5c(=O)[nH]c(N)nc54)[C@H](O)[C@@H]3OP(O)(=S)OCC(O)COP(O)(=S)O[C@H]3[C@@H](O)[C@H](n4cnc5c(=O)[nH]c(N)nc54)O[C@@H]3COP(O)(=S)O[C@H]3[C@@H](O)[C@H](n4ccc(=O)[nH]c4=O)O[C@@H]3COP(O)(=S)O[C@H]3[C@@H](O)[C@H](n4cnc5c(=O)[nH]c(N)nc54)O[C@@H]3COP(O)(=S)O[C@H]3[C@@H](O)[C@H](n4ccc(=O)[nH]c4=O)O[C@@H]3COP(O)(=S)O[C@H]3[C@@H](O)[C@H](n4ccc(=O)[nH]c4=O)O[C@@H]3COP(O)(=S)O[C@H]3[C@@H](O)[C@H](n4ccc(N)nc4=O)O[C@@H]3COP(O)(=S)O[C@H]3[C@@H](O)[C@H](n4cnc5c(=O)[nH]c(N)nc54)O[C@@H]3COP(O)(=S)O[C@H]3[C@@H](O)[C@H](n4ccc(=O)[nH]c4=O)O[C@@H]3COP(O)(=S)O[C@H]3[C@@H](O)[C@H](n4ccc(N)nc4=O)O[C@@H]3COP(O)(=S)O[C@H]3[C@@H](O)[C@H](n4cnc5c(=O)[nH]c(N)nc54)O[C@@H]3COP(O)(=S)O[C@H]3[C@@H](O)[C@H](n4ccc(=O)[nH]c4=O)O[C@@H]3CO)[C@H]2O)c(=O)n1 (some centres undefined) | inactive | Active | inactive | Active | Active | Active | Active | Active | Active | Active | Active | Active | Active | Active | Active | Active | Active | Active | Activity [21]: Active; Activity [22]: inactive
